# Values quoted from earlier work as cited in patent publication US8097726B2, “Huperzine a compound for treatment of alzheimer's disease” (priority 2006, dated 2012).
# Assays:
# [1] = rapidly eliminated from the kidneys
# [2] = administered orally at 0.2 mg twice a day for 8 weeks; AD patients
structure (smiles),measurement,setting,value
C/C=C1\[C@H]2C=C(C)C[C@]1(N)c1ccc(=O)[nH]c1C2 [huperzine A],half-life in plasma,[1],4 to 5 h
same,"patients with significant improvement in memory, cognition and behavior",[2],58%
